Laboratory results: patent US10919896B2, “Preparation and uses of pyrimidinone derivatives” (Cancer Research Technology Limited, priority 2016, dated 2021)

Tests used:
Cdc7/ASK = Cdc7/ASK (Homo sapiens, UniProt O00311); experiment: Cdc7 Biochemical Assay Method 1: 384 well ELISA, whole protein substrate MCM2, antibody against Phospho MCM2 (S53); parameters: purchased; settings: 2 μM ATP, read-out: Biochemical Method 1 (pIC50) (converted)
In short: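 MCM2 protein substrate was coated on nickel-chelate plates, then Cdc7/ASK was added with 2 μM ATP in 50 mM Tris-HCl pH 8.5, 10 mM MgCl2, 1 mM DTT, 4% DMSO, 90 min at room temperature. Phospho-MCM2 (S53) was detected by ELISA with an AP secondary and PNPP absorbance. IC50 was derived from % inhibition versus no-compound and no-enzyme controls.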

[1] = tested on: Cdc7 (pS53MCM2 levels in HCT116 cells); experiment: Cdc7 Cell Pharmacodynamics Assay Method 1: pS53MCM2 levels in HCT116 cells, 6 hours; format: cell-based; settings: for EC50: Homo sapiens, HCT-116, 6 h, read-out: Biomarker Method 1 (pEC50) (converted)
From the text: This protocol describes a method to investigate the inhibition of Cdc7 activity of compounds by measuring pS53MCM2 levels in cells after treatment.
• HCT116 cells (wild type P53 positive) • McCoys 5A media (PAA Laboratories Ltd, E15-022) • 10% FCS (Sera Laboratories International Ltd, EU000F Batch:108005) • 100× L-Glutamine (Invitrogen, 25030-024) • D-PBS without CaCl2 and MgCl2 (Invitrogen, ref 14190-094) • Trypsin/EDTA (Invitrogen 25300-054) • 2% BSA in PBS • Cell Extraction Buffer (Invitrogen FNN0011) • Protease inhibitor cocktail (Sigma P-2714) • PMSF 0.3M stock in DMSO (Sigma P7626) • Antibody-rabbit pMCM2 Ser53 (Bethyl #A300-756A) • Antibody-goat MCM2 (Bethyl #A300-122A) • Antibody-goat Anti Rabbit IgG HRP (Perbio Science UK Ltd 31462) • 1×PBS • FACE Wash buffer (0.02% Triton X100 in 1×PBS) • SuperSignal ELISA Pico Chemiluminescent Substrate (Perbio Science UK Ltd 37070) Method • 72 hours prior to the start of the experiment plate 1×10^6 HCT 116 cells in a 150 cm^2 flask in complete McCoys 5A media (+10% FCS+1× L-glutamine). • Plate 20,000 HCT116 cells per well in standard TC treated 96 well plate in 100 μL complete McCoys 5A media. • Allow cells to settle overnight in incubator set at 37° C. and 5% CO2. • Remove intermediate plate from fridge and place at 37° C. overnight to allow to equilibrate. • Cell treatment: cell assay plate 100 μL; daughter to cell transfer volume 3.33 μL; daughter volume 45 μL; mother plate to daughter volume 5 μL. • Once all cells are treated remove the cells to the incubator and incubate for 6 hours. • Dilute the capture antibody (total MCM2#A300-122A) 1 in 250 in the required volume of PBS (5 mL per assay plate) and add 50 μL to each well of a Hybond plate excluding wells 12E to 12H. In these wells add 50 μL PBS. Seal the plate and incubate at room temperature for a minimum of 2 hours. • Defrost aliquot of Invitrogen Cell Extraction Buffer (FNN0011) on ice and supplement with appropriate volume of both Sigma protease inhibitor cocktail (P-2714) and PMSF (final conc 1 mM from a 1 M stock in DMSO). • After the 6 hour cell treatment time tap out the media from the assay plates and place them in the −70° C. freezer for at least 5 minutes. • Remove plates from freezer and add 20 μL of ice cold complete lysis buffer on ice. Incubate cells for 30 minutes at 4° C. • Add 80 μL per well 2% BSA. • Transfer 80 μL from the lysis plate to the same wells in the capture/ELISA plate. Cover with plate seal and incubate plates overnight at 4° C. • Wash plates with PBS, remove any residual remaining liquid and add 50 μL per well of pMCM2 Ser53 antibody (#A300-756A) diluted 1 in 100 in 2% BSA. Cover plate and incubate at room temperature for 2 hours with gentle shaking. • Wash plates with PBS, remove any residual remaining liquid and Incubate with 50 μL goat anti rabbit antibody (1 in 800 dilution in 2% BSA) for 1 hour at room temperature. • Wash plates with PBS, remove any residual remaining liquid and add 50 μL mixed SuperSignal Pico substrate. • Incubate each plate for 5 minutes at room temperature shielding the plates from direct light (with a cover plate). Read plates with the luminescent detection. Method 2A and 2B

Chain of Cdc7/ASK (O00311 whole entry): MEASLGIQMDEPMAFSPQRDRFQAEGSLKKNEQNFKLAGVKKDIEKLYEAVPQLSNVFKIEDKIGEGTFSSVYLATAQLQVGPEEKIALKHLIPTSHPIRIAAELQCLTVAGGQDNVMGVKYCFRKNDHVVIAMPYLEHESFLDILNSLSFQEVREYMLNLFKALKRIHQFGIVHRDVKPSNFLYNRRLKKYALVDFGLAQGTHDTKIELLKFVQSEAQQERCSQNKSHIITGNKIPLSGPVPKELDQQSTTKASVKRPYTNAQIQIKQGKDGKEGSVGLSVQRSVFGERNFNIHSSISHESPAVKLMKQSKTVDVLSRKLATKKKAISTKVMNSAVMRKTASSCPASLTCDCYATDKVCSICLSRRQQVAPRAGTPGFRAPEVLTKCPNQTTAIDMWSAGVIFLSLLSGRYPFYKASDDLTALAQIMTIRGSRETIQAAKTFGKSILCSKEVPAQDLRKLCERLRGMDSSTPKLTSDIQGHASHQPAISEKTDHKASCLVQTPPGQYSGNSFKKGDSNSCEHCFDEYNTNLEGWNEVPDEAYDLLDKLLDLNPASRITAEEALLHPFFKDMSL
Chain of Cdc7/ASK (Q9UBU7 whole entry partner): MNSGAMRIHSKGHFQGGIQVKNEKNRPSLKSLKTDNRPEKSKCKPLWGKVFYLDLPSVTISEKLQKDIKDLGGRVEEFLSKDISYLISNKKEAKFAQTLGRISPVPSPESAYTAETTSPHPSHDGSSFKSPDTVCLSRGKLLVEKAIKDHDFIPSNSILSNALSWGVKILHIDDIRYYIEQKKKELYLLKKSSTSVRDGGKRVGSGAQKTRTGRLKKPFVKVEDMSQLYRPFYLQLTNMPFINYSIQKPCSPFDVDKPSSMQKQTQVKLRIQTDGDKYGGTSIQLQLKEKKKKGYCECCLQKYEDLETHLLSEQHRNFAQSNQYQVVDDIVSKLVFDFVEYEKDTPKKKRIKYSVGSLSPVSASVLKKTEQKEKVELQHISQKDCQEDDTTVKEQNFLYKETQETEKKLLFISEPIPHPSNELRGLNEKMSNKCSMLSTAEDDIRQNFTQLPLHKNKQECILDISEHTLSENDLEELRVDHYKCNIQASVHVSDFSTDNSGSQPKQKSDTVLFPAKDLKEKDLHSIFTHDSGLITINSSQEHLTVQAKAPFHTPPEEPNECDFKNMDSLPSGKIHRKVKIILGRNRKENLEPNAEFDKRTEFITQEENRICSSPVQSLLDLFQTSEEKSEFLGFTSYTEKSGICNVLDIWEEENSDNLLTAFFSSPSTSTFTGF

Row | IC50 (Cdc7/ASK) [nM] | EC50 [1] [nM] | Biomarker Method 1 (pEC50) [1] | Compound
1 | 9.33 | 224 |  | O=c1[nH]c(-c2ccncc2)nc(N2CCCC(CO)C2)c1Cl (centres unmarked) [Compound 123]
2 | 40.7 | 912 |  | O=c1[nH]c(-c2ccncc2)nc(N2CCN(CCO)CC2)c1Cl [Compound 125]
3 | 45.7 | 224 |  | O=c1[nH]c(-c2ccncc2)nc(N2CCC(F)(F)CC2)c1Cl [Compound 127]
4 | 2.57 | 79.4 |  | O=c1[nH]c(-c2ccncc2)nc(N2CCSCC2)c1Cl [Compound 128]
5 | 2.09 | 871 |  | O=c1[nH]c(-c2ccncc2)nc(N2CCN[C@@H](CO)C2)c1Cl [Compound 129]
6 | 8.13 | 112 |  | O=c1[nH]c(-c2ccncc2)nc(N2CCCC(F)C2)c1Cl (centres unmarked) [Compound 131]
7 | 1.95 | 33.9 |  | O=c1[nH]c(-c2ccncc2)nc(N2CCCC(F)(F)C2)c1Cl [Compound 132]
8 | 19.1 | 692 |  | O=c1[nH]c(-c2ccncc2)nc(N2CC3C(C2)C3(F)F)c1Cl (centres unmarked) [Compound 134]
9 | 23.4 | 661 |  | O=c1[nH]c(-c2ccncc2)nc(N2CCC(C(F)(F)F)C2)c1Cl (centres unmarked) [Compound 135]
10 | 20 | 2090 |  | O=c1[nH]c(-c2ccncc2)nc(N2CCCN(CCO)CC2)c1Cl [Compound 136]
11 | 6.03 | 457 |  | C[C@@H]1CN(c2nc(-c3ccncc3)[nH]c(=O)c2Cl)CCN1 [Compound 140]
12 | 15.5 | 661 |  | O=c1[nH]c(-c2ccncc2)nc(N2CCCN(CC(F)(F)F)CC2)c1Cl [Compound 142]
13 | 21.4 | 407 |  | CCCN1CCCN(c2nc(-c3ccncc3)[nH]c(=O)c2Cl)CC1 [Compound 143]
14 | 9.33 | 589 |  | O=C(N1CCCN(c2nc(-c3ccncc3)[nH]c(=O)c2Cl)CC1)C(F)(F)F [Compound 144]
15 | 2.51 | 269 |  | CS(=O)(=O)N1CCCN(c2nc(-c3ccncc3)[nH]c(=O)c2Cl)CC1 [Compound 145]
16 | 7.24 | 229 |  | O=c1[nH]c(-c2ccncc2)nc(N2CCN(CC(F)(F)F)CC2)c1Cl [Compound 146]
17 | 14.1 | 427 |  | C#CCN1CCN(c2nc(-c3ccncc3)[nH]c(=O)c2Cl)CC1 [Compound 150]
18 | 34.7 | 501 |  | O=c1[nH]c(-c2ccncc2)nc(N2CCC3(CC2)COC3)c1Cl [Compound 151]
19 | 19.5 | 871 |  | O=c1[nH]c(-c2ccncc2)nc(N2CCN(CC(F)(F)C(F)F)CC2)c1Cl [Compound 152]
20 | 1.78 | 126 |  | N#CC1CCN(c2nc(-c3ccncc3)[nH]c(=O)c2Cl)CC1 [Compound 153]
21 | 3.98 | 66.1 |  | CC(F)(F)C1CN(c2nc(-c3ccncc3)[nH]c(=O)c2Cl)CCN1 (centres unmarked) [Compound 156]
22 | 2.95 | 79.4 |  | CC(C)(C)[C@H]1CN(c2nc(-c3ccncc3)[nH]c(=O)c2Cl)CCN1 [Compound 157]
23 | 6.61 | 209 |  | O=c1[nH]c(-c2ccncc2)nc(N2CCOC(C(F)(F)F)C2)c1Cl (centres unmarked) [Compound 159]

Continued, compound first:

Row | Compound | IC50 (Cdc7/ASK) [nM] | EC50 [1] [nM] | Biomarker Method 1 (pEC50) [1]
24 | CC1CN(c2nc(-c3ccncc3)[nH]c(=O)c2Cl)CCN1C (centres unmarked) [Compound 28] | 11.2 | 191 | 
25 | CCN1CCN(c2nc(-c3ccncc3)[nH]c(=O)c2Cl)CC1 [Compound 31] | 39.8 | 398 | 
26 | O=C(N1CCN(c2nc(-c3ccncc3)[nH]c(=O)c2Cl)CC1)C(F)(F)F [Compound 76] | 3.47 | 182 | 
27 | C[C@H]1CN(c2nc(-c3ccncc3)[nH]c(=O)c2Cl)CCN1C(=O)C(F)(F)F [Compound 77, 5-chloro-4-[(3S)-3-methyl-4-(2,2,2-trifluoroacetyl)piperazin-1-yl]-2-(4-pyridyl)-1H-pyrimidin-6-one] | 2.95 | 93.3 | 
28 | CC(=O)N1CCN(c2nc(-c3ccncc3)[nH]c(=O)c2Cl)C[C@@H]1C [Compound 78] | 2.29 | 468 | 
29 | CN1CCN(c2nc(-c3ccncc3)[nH]c(=O)c2Cl)CC1 [Compound 81] | 9.33 | 195 | 
30 | CC(C)CN1CCN(c2nc(-c3ccncc3)[nH]c(=O)c2Cl)CC1 [Compound 82] | 31.6 | 977 | 
31 | O=c1[nH]c(-c2ccncc2)nc(N2CCN(CC3CCCC3)CC2)c1Cl [Compound 84] | 23.4 | 589 | 
32 | O=c1[nH]c(-c2ccncc2)nc(N2CCN(CC3CCCCC3)CC2)c1Cl [Compound 85] | 47.9 | 891 | 
33 | CC(C)CN1CCC(c2nc(-c3ccnc(F)c3)[nH]c(=O)c2Cl)CC1 [Compound 87] | 3.02 | 148 | 
34 | C[C@H]1CN(c2nc(-c3ccncc3)[nH]c(=O)c2Cl)CCN1C [Compound 88] | 14.1 | 107 | 
35 | O=c1[nH]c(-c2ccncc2)nc(N2CCOCC2)c1Cl [Compound 89, 5-chloro-4-morpholino-2-(4-pyridyl)-1H-pyrimidin-6-one] | 2.29 | 74.1 | 
36 | O=c1[nH]c(-c2ccncc2)nc(N2CCOC(c3ccccc3)C2)c1Cl (centres unmarked) [Compound 91] | 66.1 | 3160 | 
37 | O=c1[nH]c(-c2ccncc2)nc(N2CCOC(CCO)C2)c1Cl (centres unmarked) [Compound 94] | 6.92 | 759 | 
38 | O=c1[nH]c(-c2ccncc2)nc(N2CCNC(C(F)(F)F)C2)c1Cl (centres unmarked) [Compound 101] | 4.37 | 44.7 | 
39 | CC1CC(C)CN(c2nc(-c3ccncc3)[nH]c(=O)c2Cl)C1 (centres unmarked) [Compound 103] | 29.5 | 1150 | 
40 | O=c1[nH]c(-c2ccncc2)nc(N2CCC(O)CC2)c1Cl [Compound 104] | 3.8 | 155 | 
41 | CC1CCCN(c2nc(-c3ccncc3)[nH]c(=O)c2Cl)C1 (centres unmarked) [Compound 105] | 14.1 | 427 | 
42 | O=c1[nH]c(-c2ccncc2)nc(N2CCC(F)CC2)c1Cl [Compound 106] | 7.59 | 70.8 | 
43 | O=c1[nH]c(-c2ccncc2)nc(N2CCCC(C(F)(F)F)C2)c1Cl (centres unmarked) [Compound 107] | 7.08 |  | 6.44
44 | O=c1[nH]c(-c2ccncc2)nc(N2CCC(CO)CC2)c1Cl [Compound 109] | 3.63 | 151 | 
45 | O=c1[nH]c(-c2ccncc2)nc(N2CCN(c3cccc(F)c3)CC2)c1Cl [Compound 111] | 16.2 | 759 | 
46 | O=C(OCc1ccccc1)N1CCN(c2nc(-c3ccncc3)[nH]c(=O)c2Cl)CC1 [Compound 112] | 6.17 | 759 | 
47 | O=c1[nH]c(-c2ccncc2)nc(N2CCCCCC2)c1Cl [Compound 114] | 19.1 | 1550 | 
48 | O=c1[nH]c(-c2ccncc2)nc(N2CCN(c3cccnc3)CC2)c1Cl [Compound 116] | 12.6 | 603 | 
49 | CC1(C)CN(c2nc(-c3ccncc3)[nH]c(=O)c2Cl)CCO1 [Compound 121] | 5.62 | 117 | 
50 | CC1CCN(c2nc(-c3ccncc3)[nH]c(=O)c2Cl)CC1 [Compound 122] | 6.61 | 417 | 
51 | O=c1[nH]c(-c2ccncc2)nc(N2C3CCCC2COC3)c1Cl [Compound 154] | 2.45 | 63.1 | 
52 | O=c1[nH]c(-c2ccncc2)nc(N2CCNC3(CCC3)C2)c1Cl [Compound 158] | 19.5 | 1740 | 
